According to patent publication US20070048356A1, “Antimicrobial treatment of nonwoven materials for infection control” (priority 2005, published 2007):

Tested on: S. aureus (ATCC 6538)
Experiment: Dynamic Shake Flask (based on ASTM E 2149-01) on treated nonwoven
Format: cell-based

With Polyhexamethylene biguanide [PHMB] the “Dynamic Shake Flask Log10 Reduction” value (Table 12, Meltblown, contact time 1 min) was 4 Log10, the “Dynamic Shake Flask Log10 Reduction” value (Table 12, Meltblown, contact time 5 min) was 4 Log10 and the “Dynamic Shake Flask Log10 Reduction” value (Table 12, Meltblown, contact time 15 min) was 4 Log10. For the same substance, the “Dynamic Shake Flask Log10 Reduction” value (Table 12, SMS, contact time 1 min) was 4 Log10, the “Dynamic Shake Flask Log10 Reduction” value (Table 12, SMS, contact time 5 min) was 4 Log10 and the “Dynamic Shake Flask Log10 Reduction” value (Table 12, SMS, contact time 15 min) was 4 Log10. For the same substance, the “Dynamic Shake Flask Log10 Reduction” value (Table 12, Spunbond, contact time 1 min) was 4 Log10, the “Dynamic Shake Flask Log10 Reduction” value (Table 12, Spunbond, contact time 5 min) was 4 Log10 and the “Dynamic Shake Flask Log10 Reduction” value (Table 12, Spunbond, contact time 15 min) was 4 Log10. For the same substance, the “Dynamic Shake Flask Log10 Reduction” value (Table 16, Spunbond substrate, contact time 1 min, listed as 0.5% PHMB) was 2.31 Log10, the “Dynamic Shake Flask Log10 Reduction” value (Table 16, Spunbond substrate, contact time 1 min, listed as 1.0% PHMB) was 4.00 Log10 and the “Dynamic Shake Flask Log10 Reduction” value (Table 16, Spunbond substrate, contact time 5 min) was 4.00 Log10. For the same substance, the “Dynamic Shake Flask Log10 Reduction” value (Table 16, Spunbond substrate, contact time 15 min) was 4.00 Log10, the “Dynamic Shake Flask Log10 Reduction” value (Table 17, Spunbond substrate, contact time 1 min) was 0.18 Log10 and the “Dynamic Shake Flask Log10 Reduction” value (Table 17, Spunbond substrate, contact time 5 min) was 0.33 Log10. For the same substance, the “Dynamic Shake Flask Log10 Reduction” value (Table 17, Spunbond substrate, contact time 15 min) was 0.58 Log10, the “Dynamic Shake Flask Log10 Reduction” value (Table 19, SMS substrate, contact time 1 min) was 0.18 Log10 and the “Dynamic Shake Flask Log10 Reduction” value (Table 19, SMS substrate, contact time 5 min) was 0.33 Log10. The “Dynamic Shake Flask Log10 Reduction” value (Table 19, SMS substrate, contact time 15 min) was 0.58 Log10.
